Laboratory results from ChEMBL document CHEMBL1201862, “PubChem BioAssay data set” (2004).
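96-well plates; 48 h exposure; 5 concentrations. Endpoints by linear interpolation between flanking doses. Not reached: highest tested concentration assigned. At the GI50, growth is halved.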 Activity calls are given as the source filed them. No stated cut-off is given here; in the data, active = GI50 up to about 1.1 µM and inactive = higher.

Tests used:
Assay in all cases: NCI anticancer screen, dose series, 48 h
XF498 = system: XF498
RXF 631 = system: RXF 631
DLD-1 = system: DLD-1
SNB-78 = system: SNB-78
HOP-18 = system: HOP-18
DMS-114 = system: DMS-114
KM-20L2 = system: KM-20L2
DMS-273 = system: DMS-273
M19-MEL = system: M19-MEL

Measured: GI50

CC1(C)CC2CC(CC(C)(C)C2=O)C1=O
inactive: XF498 > 100 µM | RXF 631 > 100 µM | DLD-1 > 100 µM | SNB-78 > 100 µM | HOP-18 > 100 µM | DMS-114 > 100 µM | KM-20L2 > 100 µM | DMS-273 > 100 µM | M19-MEL > 100 µM

CCOc1cccc2ccc[n+](CC)c12
inactive: XF498 42.9 µM | RXF 631 > 100 µM | DLD-1 > 100 µM | HOP-18 > 100 µM | DMS-114 32.7 µM | KM-20L2 52.2 µM | DMS-273 35.8 µM | M19-MEL 41 µM

O=C1N(c2ccccc2)C(=O)C2(SC=NN2Cc2ccccc2)N1c1ccccc1 (stereo not drawn)
inactive: XF498 > 100 µM | DLD-1 > 100 µM | SNB-78 > 100 µM | HOP-18 > 100 µM | DMS-114 > 100 µM | KM-20L2 > 100 µM | M19-MEL > 100 µM

BrC1=CC=C2NC=CC3=CC=NC1C32 (stereo not drawn)
inactive: XF498 22.9 µM | RXF 631 27.2 µM | DLD-1 19 µM | SNB-78 29.6 µM | HOP-18 14.1 µM | DMS-114 14 µM | KM-20L2 19.7 µM | DMS-273 7.14 µM | M19-MEL 14.1 µM

CNS(=O)(=O)NN(C)S(=O)(=O)c1ccc(OC)cc1
inactive: XF498 > 100 µM | RXF 631 > 100 µM | DLD-1 > 100 µM | DMS-114 > 100 µM | KM-20L2 > 100 µM | DMS-273 > 100 µM | M19-MEL > 100 µM

CC1(C)CC(=O)C/C(=N/c2ccc([N+](=O)[O-])cc2)C1
inactive: XF498 > 100 µM | RXF 631 > 100 µM | DLD-1 21.1 µM | SNB-78 > 100 µM | HOP-18 > 100 µM | DMS-114 41.4 µM | KM-20L2 > 100 µM | DMS-273 > 100 µM | M19-MEL 66.2 µM

N#Cc1cn(-c2c3ccccc3nc3ccccc23)c(=O)[nH]c1=O
inactive: XF498 11.6 µM | DLD-1 15.5 µM | SNB-78 13.5 µM | DMS-114 8 µM | KM-20L2 7.38 µM | M19-MEL 6.46 µM

COc1cc2c(oc(=O)c3c4occc4cc(OC)c23)c2cccc(O)c12
inactive: XF498 > 100 µM | DLD-1 > 100 µM | SNB-78 > 100 µM | HOP-18 > 100 µM | DMS-114 > 100 µM | KM-20L2 > 100 µM | DMS-273 > 100 µM | M19-MEL > 100 µM

CC#C[I+]c1ccccc1
inactive: XF498 16.7 µM | RXF 631 31.1 µM | DLD-1 14.3 µM | SNB-78 22.7 µM | HOP-18 16.6 µM | DMS-114 13.2 µM | KM-20L2 17 µM | DMS-273 13.1 µM | M19-MEL 17.8 µM

CC(=O)c1cccc(NCn2nnc3ccccc32)c1
inactive: XF498 > 100 µM | DLD-1 > 100 µM | HOP-18 > 100 µM | DMS-114 > 100 µM | KM-20L2 > 100 µM | DMS-273 > 100 µM | M19-MEL > 100 µM

COC(=O)C1=C(O)c2cc(OC)c(OC)cc2C(c2ccc(OC)c(OC)c2)C1 (stereo not drawn)
inactive: XF498 94.6 µM | RXF 631 49.1 µM | DLD-1 44 µM | SNB-78 > 100 µM | HOP-18 > 100 µM | DMS-114 > 100 µM | KM-20L2 86.7 µM | DMS-273 67.3 µM | M19-MEL > 100 µM

Cc1ccc(S(=O)(=O)c2c3nc4ccccc4nc3n3c2[nH]c2ccccc23)cc1
inactive: XF498 > 100 µM | DLD-1 > 100 µM | SNB-78 > 100 µM | DMS-114 > 100 µM | KM-20L2 > 100 µM | DMS-273 88.7 µM | M19-MEL > 100 µM

Cn1cnc([N+](=O)[O-])c1SC1=NCCS1
inactive: XF498 > 100 µM | DLD-1 31.4 µM | SNB-78 42.9 µM | HOP-18 4.24 µM | DMS-273 98.6 µM | M19-MEL 49.4 µM

CC(C)NC1CCCCC2c3cc(F)ccc3[C@]12O (stereo partly drawn)
inactive: DLD-1 > 100 µM | SNB-78 > 100 µM | HOP-18 > 100 µM | DMS-114 > 100 µM | KM-20L2 > 100 µM | DMS-273 > 100 µM | M19-MEL > 100 µM

COc1ccc2c3c1C(=O)CCC3CO2 (stereo not drawn)
inactive: XF498 > 100 µM | RXF 631 > 100 µM | DLD-1 > 100 µM | SNB-78 > 100 µM | DMS-114 > 100 µM | KM-20L2 > 100 µM | DMS-273 > 100 µM | M19-MEL > 100 µM

CC1(C)O[C@@H](CCl)C[C@@H](C#N)O1
inactive: DLD-1 > 100 µM | SNB-78 > 100 µM | HOP-18 > 100 µM | DMS-114 > 100 µM | KM-20L2 > 100 µM | DMS-273 > 100 µM | M19-MEL > 100 µM

C=C(CN(C)C)C(=O)c1ccc(C(=O)C(=C)CN(C)C)cc1
inactive: XF498 > 100 µM | DLD-1 > 100 µM | HOP-18 > 100 µM | KM-20L2 > 100 µM | M19-MEL > 100 µM

Nc1ccc(C(=O)NN2C(=O)C(Cl)C2c2ccccc2Cl)cc1 (stereo not drawn)
inactive: XF498 17.5 µM | DLD-1 10.8 µM | SNB-78 15.7 µM | HOP-18 3.1 µM | DMS-114 5.48 µM | KM-20L2 15.8 µM | DMS-273 3.2 µM | M19-MEL 7.94 µM

Cc1cc(=O)c2c(O)cc3c(c2o1)CC=C(COC1OC(COC2OC(CO)C(O)C(O)C2O)C(O)C(O)C1O)CO3 (stereo not drawn)
inactive: XF498 > 100 µM | DLD-1 > 100 µM | SNB-78 > 100 µM | DMS-114 > 100 µM | KM-20L2 > 100 µM | DMS-273 > 100 µM | M19-MEL > 100 µM

N#CC(c1ccc(Cl)cc1)c1cccc(C(C#N)c2ccc(Cl)cc2)n1 (stereo not drawn)
inactive: XF498 5.13 µM | DLD-1 37.2 µM | SNB-78 20.7 µM | KM-20L2 38.8 µM | M19-MEL 19.6 µM

COC(=O)C1CC(C(=O)OC)c2nc3cc([N+](=O)[O-])ccc3nc21 (stereo not drawn)
inactive: XF498 > 96.6 µM | RXF 631 > 73.3 µM | DLD-1 31 µM | SNB-78 > 100 µM | HOP-18 > 100 µM | DMS-114 16.3 µM | KM-20L2 63.7 µM | DMS-273 44.5 µM | M19-MEL 61 µM

Cc1cc2c(=O)cc(-c3ccc(F)cc3)oc2c(C(=O)O)c1C
inactive: XF498 > 100 µM | RXF 631 > 100 µM | DLD-1 > 100 µM | SNB-78 > 100 µM | HOP-18 > 100 µM | DMS-114 > 100 µM | KM-20L2 > 100 µM | DMS-273 > 100 µM | M19-MEL > 100 µM

C[C@@H](c1ccccc1)N(CC#N)C1CCC[C@H]1O (stereo partly drawn)
inactive: XF498 > 100 µM | RXF 631 > 100 µM | SNB-78 > 100 µM | HOP-18 > 100 µM | KM-20L2 > 100 µM | DMS-273 > 100 µM | M19-MEL > 100 µM

CC(=O)Oc1cc2c(=O)oc3c(OC(C)=O)c(OC(C)=O)c(OC(C)=O)c4c(=O)oc(c1OC(C)=O)c2c34
inactive: XF498 32.5 µM | RXF 631 25.4 µM | DLD-1 > 100 µM | SNB-78 39.4 µM | HOP-18 32.1 µM | DMS-114 21.6 µM | KM-20L2 35.3 µM | DMS-273 > 100 µM | M19-MEL 17.9 µM

C[C@@]12CCCC(=O)N1[C@@H](CO)C(c1ccccc1)O2 (stereo partly drawn)
inactive: XF498 > 100 µM | DLD-1 > 100 µM | SNB-78 > 100 µM | HOP-18 > 100 µM | DMS-114 > 100 µM | KM-20L2 > 100 µM | DMS-273 > 100 µM | M19-MEL > 100 µM

CC1=NN(C(=O)CC(=O)Nc2ccccc2)C(=O)C1/N=N/c1ccc(S(N)(=O)=O)cc1 (stereo not drawn)
inactive: XF498 56.8 µM | RXF 631 91.6 µM | DLD-1 95.1 µM | SNB-78 88.9 µM | HOP-18 > 100 µM | DMS-114 63.8 µM | KM-20L2 > 100 µM | DMS-273 63.5 µM

O=C(O)CSc1nnc(Cc2ccccc2)[nH]1
inactive: XF498 15.7 µM | RXF 631 > 100 µM | DLD-1 > 100 µM | SNB-78 > 100 µM | HOP-18 > 100 µM | DMS-114 > 100 µM | M19-MEL > 100 µM

CC1(C)C(=NN=C(N)N)C(C)(C)C1=NN=C(N)N
inactive: XF498 > 100 µM | RXF 631 > 100 µM | DLD-1 > 100 µM | SNB-78 > 100 µM | DMS-114 > 100 µM | KM-20L2 > 100 µM | DMS-273 > 100 µM | M19-MEL > 100 µM

CN1C2C=C(c3ccccc3)CC1CC2 (stereo not drawn)
inactive: XF498 > 100 µM | DLD-1 > 100 µM | HOP-18 > 100 µM | KM-20L2 > 100 µM | M19-MEL > 100 µM
